Drawing on patent US20200190073A1, “SUBSTITUTED SUCCINIMIDE DERIVATIVES AS PESTICIDES” (BASF SE, priority 2017, published 2020), this text covers mortality for seven compounds.

What all share (format): in vivo
For assay [1], the system named is Diamond back moth (Plutella xylostella). Nature of the assay: B.1 Diamond back moth, cabbage leaf dip. Particulars: foliar, 72 h, read-out: mortality in comparison with untreated controls. As to the method: B.1 Diamond back moth (Plutella xylostella)
The active compound was dissolved at the desired concentration in a mixture of 1:1 (vol:vol) distilled water:acetone. Surfactant (Kinetic HV) was added at a rate of 0.01% (vol/vol). The test solution was prepared at the day of use.
Leaves of cabbage were dipped in test solution and air-dried. Treated leaves were placed in petri dishes lined with moist filter paper and inoculated with ten 3rd instar larvae. Mortality was recorded 72 hours after treatment. Feeding damages were also recorded using a scale of 0-100%.

The subject of assay [2] is Green Peach Aphid (Myzus persicae). Briefly: B.2 Green peach aphid, artificial diet, systemic. As to conditions: 72 h, read-out: mortality in comparison with untreated controls. The source says:
B.2 Green Peach Aphid (Myzus persicae)
For evaluating control of green peach aphid (Myzus persicae) through systemic means the test unit consisted of 96-well-microtiter plates containing liquid artificial diet under an artificial mem brane.
The compounds were formulated using a solution containing 75% v/v water and 25% v/v DMSO. Different concentrations of formulated compounds were pipetted into the aphid diet, using a custom built pipetter, at two replications.
After application, 5-8 adult aphids were placed on the artificial membrane inside the microtiter plate wells. The aphids were then allowed to suck on the treated aphid diet and incubated at about 23±1° C. and about 50±5% relative humidity for 3 days. Aphid mortality and fecundity was then visually assessed.

Assay [3] relates to Vetch Aphid (Megoura viciae). Nature of the assay: B.3 Vetch aphid, broad bean leaf disks. Particulars: foliar, 120 h, read-out: mortality in comparison with untreated controls. The protocol: B.3 Vetch Aphid (Megoura viciae)
For evaluating control of vetch aphid (Megoura viciae) through contact or systemic means the test unit consisted of 24-well-microtiter plates containing broad bean leaf disks.
The compounds were formulated using a solution containing 75% v/v water and 25% v/v DMSO. Different concentrations of formulated compounds were sprayed onto the leaf disks at 2.5 μl, using a custom built micro atomizer, at two replications.
After application, the leaf disks were air-dried and 5-8 adult aphids placed on the leaf disks inside the microtiter plate wells. The aphids were then allowed to suck on the treated leaf disks and incubated at about 23±1° C. and about 50±5% relative humidity for 5 days. Aphid mortality and fecundity was then visually assessed.

The subject of assay [4] is Tobacco Budworm (Heliothis virescens). Nature of the assay: B.4 Tobacco budworm, insect diet with eggs. As to conditions: 120 h, read-out: mortality in comparison with untreated controls. The protocol:
B.4 Tobacco Budworm (Heliothis virescens)
For evaluating control of tobacco budworm (Heliothis virescens) the test unit consisted of 96-well-microtiter plates containing an insect diet and 15-25 H. virescens eggs.
The compounds were formulated using a solution containing 75% v/v water and 25% v/v DMSO. Different concentrations of formulated compounds were sprayed onto the insect diet at 10 μl, using a custom built micro atomizer, at two replications.
After application, microtiter plates were incubated at about 28±1° C. and about 80±5% relative humidity for 5 days. Egg and larval mortality was then visually assessed.

The subject of assay [5] is Boll Weevil (Anthonomus grandis). Briefly: B.5 Boll weevil, insect diet with eggs. Particulars: 120 h, read-out: mortality in comparison with untreated controls. As to the method: B.5 Boll Weevil (Anthonomus grandis)
For evaluating control of boll weevil (Anthonomus grandis) the test unit consisted of 96-well-microtiter plates containing an insect diet and 5-10 A. grandis eggs.
The compounds were formulated using a solution containing 75% v/v water and 25% v/v DMSO. Different concentrations of formulated compounds were sprayed onto the insect diet at 5 μl, using a custom built micro atomizer, at two replications.
After application, microtiter plates were incubated at about 25±1° C. and about 75±5% relative humidity for 5 days. Egg and larval mortality was then visually assessed.

The subject of assay [6] is Orchid Thrips (Dichromothrips Corbetti). Nature of the assay: B.7 Orchid thrips, floral immersion. Particulars: Thrips, 72 h, read-out: mortality in comparison with untreated controls. As to the method:
B.7 Orchid Thrips (Dichromothrips Corbetti)
Dichromothrips corbetti adults used for bioassay were obtained from a colony maintained continuously under laboratory conditions. For testing purposes, the test compound is diluted in a 1:1 mixture of acetone:water (vol:vol), plus Kinetic HV at a rate of 0.01% v/v.
Thrips potency of each compound was evaluated by using a floral-immersion technique. All petals of individual, intact orchid flowers were dipped into treatment solution and allowed to dry in Petri dishes. Treated petals were placed into individual re-sealable plastic along with about 20 adult thrips. All test arenas were held under continuous light and a temperature of about 28° C. for duration of the assay. After 3 days, the numbers of live thrips were counted on each petal. The percent mortality was recorded 72 hours after treatment.

In assay [7] the test system is Rice Green Leafhopper (Nephotettix virescens). Briefly: B.8 Rice green leafhopper, sprayed rice seedlings. Particulars: 72 h, read-out: mortality in comparison with untreated controls. The protocol: B.8 Rice Green Leafhopper (Nephotettix virescens)
Rice seedlings were cleaned and washed 24 hours before spraying. The active compounds were formulated in 1:1 acetone:water (vol:vol), and 0.01% vol/vol surfactant (Kinetic HV) was added. Potted rice seedlings were sprayed with 5-6 ml test solution, air dried, covered with Mylar cages and inoculated with 10 adults. Treated rice plants were kept at about 28-29° C. and relative humidity of about 50-60%. Percent mortality was recorded after 72 hours.

Assay [8] concerns Red Spider Mite (Tetranychus kanzawai). Briefly: B.9 Red spider mite, sprayed cowpea beans. Particulars: 72 h, read-out: mortality in comparison with untreated controls. As to the method:
B.9 Red Spider Mite (Tetranychus kanzawai)
The active compound was dissolved at the desired concentration in a mixture of 1:1 (vol:vol) distilled water:acetone. Add surfactant (Kinetic HV) was added at a rate of 0.01% (vol/vol).The test solution was prepared at the day of use.
Potted cowpea beans of 4-5 days of age were cleaned with tap water and sprayed with 1-2 ml of the test solution using air driven hand atomizer. The treated plants were allowed to air dry and afterwards inoculated with 30 or more mites by clipping a cassava leaf section from rearing population. Treated plants were placed inside a holding room at about 25-27° C. and about 50-60% relative humidity. Percent mortality was assessed 72 hours after treatment.

For assay [9], the system named is Green Soldier Stink Bug (Nezara viridula). Nature of the assay: B.11 Green soldier stink bug, sprayed soybean pods. As to conditions: 120 h, read-out: mortality in comparison with untreated controls. The protocol:
B.11 Green Soldier Stink Bug (Nezara viridula)
The active compound was dissolved at the desired concentration in a mixture of 1:1 (vol:vol) distilled water:acetone. Surfactant (Kinetic HV) was added at a rate of 0.01% (vol/vol). The test solution was prepared at the day of use. Soybean pods were placed in glass Petri dishes lined with moist filter paper and inoculated with ten late 3rd instar N. viridula. Using a hand atomizer, approximately 2 ml solution is sprayed into each Petri dish. Assay arenas were kept at about 25° C. Percent mortality was recorded after 5 days.

Assay [10] deals with Neotropical Brown Stink Bug (Euschistus heros). Briefly: B.12 Neotropical brown stink bug, dipped pole bean. Particulars: 120 h, read-out: mortality in comparison with untreated controls. The protocol: B.12 Neotropical Brown Stink Bug (Euschistus heros)
For evaluating control of Euschistus heros through contact the test unit consisted of 100 ml disposable plastic beakers with transparent lids.
The compounds were formulated using a solution containing 50% water and 50% acetone. 50 ml of different concentrations of formulated compounds or mixtures were prepared in a glass petri dish and used for dipping three 6 cm sections of fresh pole bean. Each treatment was replicated eight times.
After application, the pole bean sections were air-dried and 5 adult E. heros placed in each beaker. The E. heros were then allowed to suck on the treated pole bean sections and incubated at 23±1° C., 50±5% RH for 5 days. E. heros mortality was then visually assessed.

The test system of assay [11] is Cowpea Aphid (Aphis Craccivora). Briefly: CE.1 Cowpea aphid, comparative test. As to conditions: read-out: % mortality in comparison to untreated controls. As to the method:
(§1) The tables show % mortality in comparison to untreated controls.
CE.1 Cowpea Aphid (Aphis Craccivora)
Potted cowpea plants colonized with approximately 100-150 aphids of various stages were sprayed after the pest population has been recorded. Population reduction was assessed after 24, 72, and 120 hours.

In assay [12] the test system is Rice Green Leafhopper (Nephotettix virescens). Briefly: CE.5 Rice green leafhopper, comparative test. Particulars: read-out: % mortality in comparison to untreated controls. As to the method: as §1
CE.5 Rice Green Leafhopper (Nephotettix virescens)
Rice seedlings were cleaned and washed 24 hours before spraying. The active compounds were formulated in 50:50 acetone:water (vol:vol), and 0.1% vol/vol surfactant (EL 620) was added. Potted rice seedlings were sprayed with 5 ml test solution, air dried, placed in cages and inoculated with 10 adults. Treated rice plants were kept at about 28-29° C. and relative humidity of about 50-60%. Percent mortality was recorded after 72 hours.

Assay [13] relates to Rice Brown Plant Hopper (Nilaparvata lugens). Briefly: CE.2 Rice brown plant hopper, comparative test. Particulars: 10 ppm, after 72 hours, read-out: % mortality in comparison to untreated controls. The protocol: as §1
CE.2 Rice Brown Plant Hopper (Nilaparvata lugens)
Rice seedlings were cleaned and washed 24 hours before spraying. The active compounds were formulated in 50:50 acetone:water (vol:vol) and 0.1% vol/vol surfactant (EL 620) was added. Potted rice seedlings were sprayed with 5 ml test solution, air dried, placed in cages and inoculated with 10 adults. Treated rice plants were kept at about 28-29° C. and relative humidity of about 50-60%. Percent mortality was recorded after 72 hours.

Assay [14] concerns Diamond back moth (Plutella xylostella). Nature of the assay: CE.6 Diamond back moth, contact activity, comparative test. As to conditions: read-out: % mortality in comparison to untreated controls. As to the method:
as §1
CE.6 Diamond Back Moth (Plutella xylostella)
Ten third-instar larvae are sprayed with 1 ml test solution and introduce to untreated leaves held petri dished lined with moist filter paper. Mortality is recorded 24, 72, and 120 hours after treatment.

Where two headings read alike, the source gives them in different places. Where only a bound is given, the exact number is not on record here.

With `Cc1cc(C2=NOC(c3cc(Cl)cc(Cl)c3)(C(F)(F)F)C2)ccc1C(=O)N[C@@H]1CC(=O)N(C)C1=O` (stereo partly shown) [Compound I-1-28], the mortality at 300 ppm in assay [1], in assay [6], in [7], in assay [8] and in [9] was above 75% in each case. In addition, the mortality at 2500 ppm in assay [2], in [3], in assay [4] and in [5] was above 75% throughout. Moreover, in [10], the mortality – broadly, the share of the test organisms that died – at 500 ppm was above 75%. The mortality at 10 ppm in assay [11] turned out to be 50%. Besides, the mortality at 3 ppm in assay [12] (72 h) was 79%.

For `Cc1cc(C2=NSC(c3cc(Cl)cc(Cl)c3)(C(F)(F)F)C2)ccc1C(=O)NC1CCN(C)C1=O` (stereo not shown) [No. 2-201 of WO 2013/092943], in [11] (at 300 ppm, sprayed cowpea plants), the mortality at 300 ppm amounted to 0%. Also, the mortality at 10 ppm in [13] stood at 0%. For the same compound, the mortality at 3 ppm in assay [12] (3 ppm, after 72 hours) amounted to 0%.

Take `CCN1C(=O)C[C@@H](NC(=O)c2ccc(C3=NO[C@@](c4cc(Cl)c(F)c(Cl)c4)(C(F)(F)F)C3)cc2Cl)C1=O` [Compound I-1-21]: the mortality at 300 ppm in [1], in assay [6], in assay [7], in [8] and in [9] was above 75% in each case. Besides, the mortality at 2500 ppm in assay [2], in assay [3], in assay [4] and in assay [5] was above 75% throughout. Moreover, in [14], the mortality at 0.1 ppm came to 97%.

Consider `CN1CCC(NC(=O)c2ccc(C3=NOC(c4cc(Cl)c(F)c(Cl)c4)(C(F)(F)F)C3)c3c2CCC3)C1=O` (stereo not shown) [Tab. 126, A-9 of WO 2015128358, reference compound], for which the mortality at 0.1 ppm in assay [14] was found to be 0%.

As to `O=C(N[C@@H]1CC(=O)N(C2CC2)C1=O)c1ccc(C2=NO[C@@](c3cc(Cl)c(F)c(Cl)c3)(C(F)(F)F)C2)cc1Cl` [Compound I-1-25, 2-Chloro-N-[(3R)-1-cyclopropyl-2,5-dioxo-pyrrolidin-3-yl]-4-[(5S)-5-(3,5-dichloro-4-fluoro-phenyl)-5-(trifluoromethyl)-4H-isoxazol-3-yl]benzamide], the mortality at 300 ppm in assay [1], in [6], in assay [7], in assay [8] and in [9] was above 75% each time. The mortality at 2500 ppm in assay [2], in assay [3], in assay [4] and in [5] was above 75% in each case. Moreover, the mortality at 500 ppm in assay [10] is above 75%.

Regarding `CCN1CCC(NC(=O)c2ccc(C3=NOC(c4cc(Cl)c(F)c(Cl)c4)(C(F)(F)F)C3)c3c2CCC3)C1=O` (stereo not shown) [Tab. 127, A-9 of WO 2015128358, reference compound], the mortality at 0.1 ppm in [14] worked out at 0%.

`Cc1cc(C2=NOC(c3cc(Cl)c(F)c(Cl)c3)(C(F)(F)F)C2)ccc1C(=O)N[C@@H]1CC(=O)N(C)C1=O` (stereo partly shown) [Compound I-1-27]: the mortality at 300 ppm in assay [1], in assay [6], in assay [7], in assay [8] and in [9] was above 75% throughout. Also, the mortality at 2500 ppm in [2], in assay [3], in assay [4] and in assay [5] was above 75% each time. In addition, the mortality at 10 ppm in [11] came out at 93%. In assay [12] (72 h), the mortality at 3 ppm amounted to 83%. Also, the mortality at 0.1 ppm in assay [14] worked out at 100%.
